For the assay, the system named is Escherichia coli strain ATCC25922. The experiment in a line: standard microdilution assay to determine minimum inhibitory concentrations (MICs). It is filed as cell-based. Conditions: for E. coli ATCC25922 MIC: Escherichia coli strain ATCC25922, microdilution; for MIC: Escherichia coli, ATCC25922, Escherichia coli strain ATCC25922, microdilution, read-out: E. coli ATCC25922 MIC. The procedure, abridged: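 Broth microdilution MIC against E. coli ATCC25922, following CLSI protocols, typically in a 100 microliter final volume. Results reported as +/− relative to a 16 micrograms/ml cutoff.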

Regarding `CN(C)Cc1ccc(-n2cc3cc(-c4ccc(S(=O)(=O)N(CC5COc6ccccc6O5)C5CCNCC5)cc4)[nH]c3nc2=O)cc1` (stereo not shown) [Compound 999], the “E. coli ATCC25922 MIC” value is given as “− (a “−” indicates that the compound has an MIC value greater than 16 micrograms/ml)”.

For orientation: MIC means the lowest concentration found to suppress growth. As for `N[C@H]1CCCN(Cc2ccc(-n3cc4cc[nH]c4nc3=O)cc2)C1` [Compound 1156], the MIC was more than 16 µg/mL.

For `N=C(N)NCCCNCc1ccc(-n2cc3cc(CCS(=O)(=O)N(CC4CCOCC4)C4CCNCC4)[nH]c3nc2=O)cc1` [Compound 930], the “E. coli ATCC25922 MIC” value is reported as “+ (a “+” indicates that the compound has an MIC value of 16 micrograms/ml or less)”.

For `N=C(N)NCCNC(=O)c1ccc(-n2cc3cc(-c4ccc(S(=O)(=O)NC5CCNCC5)cc4)[nH]c3nc2=O)cc1` [Compound 1048], the “E. coli ATCC25922 MIC” value is “+ (a “+” indicates that the compound has an MIC value of 16 micrograms/ml or less)”.

Take `COCCOCCOc1cccc(-c2cc3cn(-c4ccc(CNCCCNC(=N)N)cc4)c(=O)nc3[nH]2)c1` [Compound 1101]: the MIC was more than 16 µg/mL.

Turning to `N=C(N)NCCC(NCc1ccc(-n2cc3cc(-c4cc(CCCCN)cc(OC(F)(F)F)c4)[nH]c3nc2=O)cc1)C(F)(F)F` (stereo not shown) [Compound 2078a], the “E. coli ATCC25922 MIC” value was “+ (a “+” indicates that the compound has an MIC value of 16 micrograms/ml or less)”.

With `NCCCN(CCCN)Cc1ccc(-n2cc3cc(-c4ccc(C(=O)N[C@H]5CC[C@H](O)CC5)cc4)[nH]c3nc2=O)cc1` [Compound 192], the MIC is more than 16 µg/mL.

On to `NC(N)=NCCC(=O)NCc1ccc(-n2cc3cc(-c4ccc(S(=O)(=O)N(CCCc5cccnc5)C5CCNCC5)cc4)[nH]c3nc2=O)cc1` [Compound 1190], for which the “E. coli ATCC25922 MIC” value was “− (a “−” indicates that the compound has an MIC value greater than 16 micrograms/ml)”.

For the molecule `N=C(N)NCCCNCc1ccc(-c2cn3cc(-c4ccc(C(=O)N5CCNCC5)cc4)[nH]c3nc2=O)cc1` [Compound 683], the MIC was less than 16 µg/mL.

Regarding `CS(=O)(=O)c1ccc(-c2cn3cc(-c4ccc(CN(CCCN)CCCNC(=N)N)cc4)c(=O)nc3[nH]2)cc1` [Compound 635], the MIC was less than 16 µg/mL.

`NCCCCOc1ccc(-c2cn3cc(-c4ccc(C(=O)N5CCNCC5)cc4)[nH]c3nc2=O)cc1` [Compound 847]: the “E. coli ATCC25922 MIC” value was “− (a “−” indicates that the compound has an MIC value greater than 16 micrograms/ml)”.

Regarding `N=C(N)NCCCNCc1ccc(-n2cc3cc(-c4cccc(S(=O)(=O)CCCN)c4)[nH]c3nc2=O)cc1` [Compound 1460], the “E. coli ATCC25922 MIC” value is “+ (a “+” indicates that the compound has an MIC value of 16 micrograms/ml or less)”.

On to `NCc1ccc(-n2cc3cc(-c4cccc(S(=O)(=O)N(CCc5cccc([N+](=O)[O-])c5)C5CCNCC5)c4)[nH]c3nc2=O)cc1` [Compound 1184], for which the MIC was more than 16 µg/mL.

For the molecule `N=C(N)NCCCNCc1ccc(-n2cc3cc(-c4ccsc4)[nH]c3nc2=O)cc1` [Compound 629], the MIC is less than 16 µg/mL.

As for `N=C(N)NCCCNCc1ccc(-n2cc3cc(-c4cc(C(=O)N5Cc6ccccc6C5)cc(N5CCNCC5)c4)[nH]c3nc2=O)cc1` [Compound 981], the “E. coli ATCC25922 MIC” value is given as “+ (a “+” indicates that the compound has an MIC value of 16 micrograms/ml or less)”.

For `N=C(N)NOCCNCc1ccc(-n2cc3cc(-c4ccc(S(=O)(=O)NC5CCNCC5)cc4)[nH]c3nc2=O)cc1` [Compound 1102], the “E. coli ATCC25922 MIC” value is “+ (a “+” indicates that the compound has an MIC value of 16 micrograms/ml or less)”.

Consider `N=C(N)NCCCNCc1ccc(-n2cc3cc(-c4cccc(OC[C@@H]5CCNC5)c4)[nH]c3nc2=O)cc1` [Compound 1423], for which the “E. coli ATCC25922 MIC” value was “+ (a “+” indicates that the compound has an MIC value of 16 micrograms/ml or less)”.

Turning to `O=c1nc2[nH]c(-c3ccc(S(=O)(=O)NC4CCNCC4)cc3)cc2cn1-c1ccccc1OCC1CCNCC1` [Compound 1165], the MIC was more than 16 µg/mL.

For `N=C(N)NCCCNCc1ccc(-c2cn3cc(CCc4cc(F)c(F)cc4F)[nH]c3nc2=O)cc1` [Compound 952], the MIC is more than 16 µg/mL.

On to `N=C(N)NCCCNCc1ccc(-n2cc3cc(-c4cc(C(=O)N5CCc6ccccc6C5)cc(N5CCNCC5)c4)[nH]c3nc2=O)cc1` [Compound 1009], for which the “E. coli ATCC25922 MIC” value was “+ (a “+” indicates that the compound has an MIC value of 16 micrograms/ml or less)”.

Consider `N=C(N)NCCCNCc1ccc(-n2cc3cc(-c4cccc(OCC5CNCCO5)c4)[nH]c3nc2=O)cc1` (stereo not shown) [Compound 1452], for which the “E. coli ATCC25922 MIC” value is recorded as “+ (a “+” indicates that the compound has an MIC value of 16 micrograms/ml or less)”.

Take `NCCCN(CCCN)Cc1ccc(-n2cc3cc[nH]c3nc2=O)cc1` [Compound 154]: the MIC was more than 16 µg/mL.

`N=C(N)NCCCNC(=O)c1ccc(-n2cc3cc(-c4cccc(S(=O)(=O)N(CCCn5ccc(C(F)(F)F)n5)C5CCNCC5)c4)[nH]c3nc2=O)cc1` [Compound 1124]: the “E. coli ATCC25922 MIC” value was “− (a “−” indicates that the compound has an MIC value greater than 16 micrograms/ml)”.

For `N=C(N)NCC(O)CNCc1ccc(-n2cc3cc(-c4ccc(S(=O)(=O)NC5CN(C(=N)N)C5)cc4)[nH]c3nc2=O)cc1` (stereo not shown) [Compound 1417], the “E. coli ATCC25922 MIC” value is on record as “+ (a “+” indicates that the compound has an MIC value of 16 micrograms/ml or less)”.

As for `NC(=O)c1ccc(-n2cc3cc(-c4ccc(S(=O)(=O)N(CCOc5ccc(F)cc5)C5CCNCC5)cc4)[nH]c3nc2=O)cc1` [Compound 1080], the MIC was more than 16 µg/mL.

As to `NCc1ccc(-n2cc3cc(-c4ccc(S(=O)(=O)N(CCCN5Cc6ccccc6C5)C5CCNCC5)cc4)[nH]c3nc2=O)cc1` [Compound 1065], the MIC was more than 16 µg/mL.

Turning to `CNCc1ccc(-n2cc3cc(-c4ccc(S(=O)(=O)N(CCCN5CCc6ccccc65)C5CCNCC5)cc4)[nH]c3nc2=O)cc1` [Compound 1063], the “E. coli ATCC25922 MIC” value is on record as “− (a “−” indicates that the compound has an MIC value greater than 16 micrograms/ml)”.

`N=C(N)NCCCNCc1ccc(-c2cn3cc(-c4ccc(S(=O)(=O)NC5CCNCC5)cc4)[nH]c3nc2=O)cc1` [Compound 772]: the MIC is less than 16 µg/mL.

With `CN(C)Cc1ccc(-n2cc3cc(-c4ccc(S(=O)(=O)N(Cc5ccc(Cl)c(Cl)c5)C5CCNCC5)cc4)[nH]c3nc2=O)cc1` [Compound 983], the “E. coli ATCC25922 MIC” value is on record as “− (a “−” indicates that the compound has an MIC value greater than 16 micrograms/ml)”.

On to `NCc1ccc(-n2cc3cc(-c4cccc(S(=O)(=O)N(CCCc5cn[nH]c5)C5CCNCC5)c4)[nH]c3nc2=O)cc1` [Compound 1225], for which the minimum inhibitory concentration (MIC) was more than 16 µg/mL.

As for `NCCCN(CCCN)Cc1ccc(-n2cc3cc(-c4ccc(C(=O)O)cc4)[nH]c3nc2=O)cc1` [Compound 218], the MIC was more than 16 µg/mL.

On to `N=C(N)NCCCNCc1ccc(-c2cn3cc(-c4ccc(Br)cc4)[nH]c3nc2=O)cc1` [Compound 618], for which the minimal inhibitory concentration (MIC) is more than 16 µg/mL.

For the molecule `N=C(N)NCCCNCc1ccc(-n2cc3cc(C4CN(CCCCN)CCO4)[nH]c3nc2=O)cc1` (stereo not shown) [Compound 1381], the “E. coli ATCC25922 MIC” value is given as “+ (a “+” indicates that the compound has an MIC value of 16 micrograms/ml or less)”.

Turning to `NCc1ccc(-n2cc3cc(-c4ccc(S(=O)(=O)N(CCCC5CCCO5)C5CCNCC5)cc4)[nH]c3nc2=O)cc1` (stereo not shown) [Compound 1066], the MIC is more than 16 µg/mL.

Take `N=C(N)N[C@@H]1CCN(Cc2ccc(-n3cc4cc(-c5ccc(S(=O)(=O)N(CC6CCOCC6)C6CCNCC6)cc5)[nH]c4nc3=O)cc2)C1` [Compound 1206]: the “E. coli ATCC25922 MIC” value is listed as “− (a “−” indicates that the compound has an MIC value greater than 16 micrograms/ml)”.

Turning to `N=C(N)NCCCNCc1ccc(-n2cc3cc(-c4cc(OC(F)(F)F)cc([S+]([O-])CCCN)c4)[nH]c3nc2=O)cc1` (stereo not shown) [Compound 2076a], the “E. coli ATCC25922 MIC” value is “+ (a “+” indicates that the compound has an MIC value of 16 micrograms/ml or less)”.

Turning to `N=C(N)NCCCNC(=O)c1ccc(-n2cc3cc(-c4ccc(S(=O)(=O)N(CC5CC5)C5CCNCC5)cc4)[nH]c3nc2=O)cc1` [Compound 996], the “E. coli ATCC25922 MIC” value was “+ (a “+” indicates that the compound has an MIC value of 16 micrograms/ml or less)”.

On to `N=C(N)NCCCNCc1ccc(-n2cc3cc(-c4cc(CNc5ccc(F)cc5)cc(N5CCNCC5)c4)[nH]c3nc2=O)cc1` [Compound 1060], for which the “E. coli ATCC25922 MIC” value was “+ (a “+” indicates that the compound has an MIC value of 16 micrograms/ml or less)”.

`N=C(N)NCCCNCc1ccc(-n2cc3cc(C4CCCN(CCNC(N)=O)C4)[nH]c3nc2=O)cc1` (stereo not shown) [Compound 2019a]: the MIC was less than 16 µg/mL.

For the molecule `NCCCNCc1ccc(-n2cc3cc(-c4ccc(S(=O)(=O)NC5CCNCC5)cc4)[nH]c3nc2=O)cc1` [Compound 852], the MIC is less than 16 µg/mL.

As for `NCCCN(CCCN)Cc1ccc(-n2cc3cc(Cn4nnc5ccccc54)[nH]c3nc2=O)cc1` [Compound 182], the MIC was more than 16 µg/mL.

`NCCCNCc1ccc(-c2cn3cc(-c4ccc(C(=O)N5CCS(=O)(=O)CC5)cc4)[nH]c3nc2=O)cc1` [Compound 698]: the MIC was more than 16 µg/mL.

For the molecule `N=C(N)NCCCNC(=O)c1ccc(-n2cc3cc(-c4ccc(S(=O)(=O)N(Cc5ccc(Cl)c(Cl)c5)C5CCNCC5)cc4)[nH]c3nc2=O)cc1` [Compound 995], the “E. coli ATCC25922 MIC” value is listed as “+ (a “+” indicates that the compound has an MIC value of 16 micrograms/ml or less)”.

As for `N=C(N)NCCCNCc1ccc(-n2cc3cc(C4CCCN(CCCN5CCOCC5)C4)[nH]c3nc2=O)cc1` (stereo not shown) [Compound 2044a], the “E. coli ATCC25922 MIC” value is “+ (a “+” indicates that the compound has an MIC value of 16 micrograms/ml or less)”.

Turning to `N=C(N)NCCCNCc1ccc(-n2cc3cc(-c4cc(CCN)cc(CCCCN)c4)[nH]c3nc2=O)cc1` [Compound 2062a], the “E. coli ATCC25922 MIC” value is given as “+ (a “+” indicates that the compound has an MIC value of 16 micrograms/ml or less)”.

Turning to `CNCCOc1ccccc1-c1cc2cn(-c3ccc(CN)cc3)c(=O)nc2[nH]1` [Compound 1129], the MIC was more than 16 µg/mL.

On to `NCCCOCc1ccc(-c2cn3cc(-c4ccc(C(=O)NC5CCNCC5)cc4)[nH]c3nc2=O)cc1` [Compound 927], for which the MIC is more than 16 µg/mL.

Take `N=C(N)NCCCN(CCCN)Cc1ccc(-n2cc3cc(-c4ccc(S(=O)(=O)NC5CN6CCC5CC6)cc4)[nH]c3nc2=O)cc1` (stereo not shown) [Compound 219]: the MIC was less than 16 µg/mL.

Consider `NCCC(=O)NCCCn1cc2cc(-c3ccc(S(=O)(=O)N[C@@H]4CCCNC4)cc3)[nH]c2nc1=O` [Compound 1298], for which the MIC is more than 16 µg/mL.
